From patent publication EP4806892A1, “CEREBLON E3 UBIQUITIN LIGASE INHIBITOR” (GAN & LEE PHARMACEUTICALS CO., LTD., priority 2023, dated 2025)

What was measured:
IL-6 = assay: LPS-induced IL-6 secretion by hPBMC (ELISA); format: cell-based; settings: Homo sapiens, 20 h compound then LPS 200 ng/mL for 5 h; for inhibition at […]: 2500nM, read-out: Inhibition Rate of IL-6 (2500nM)
Experimental: (§1) After thawing, cryopreserved hPBMC (FPB003F-C, Shanghai OriBiotech.) cells were resuspended in RPMI 1640 medium (30-2001, ATCC) containing 10% inactivated FBS (10099141C, Gibco) and cultured overnight at 37°C and 5% CO2. The next day, hPBMC cells were seeded in a 96-well cell culture plate at a density of 2 × 10^5 cells/well/100 µL (2 × 10^6 cells/mL), and 100 µL of compound in dimethyl sulfoxide solution (final concentration 0.0064-2500 nM) was added. […] The cell plate was placed in a 37°C, 5% CO2 incubator for 5 h, and then centrifuged at 1000 rpm for 15 min. 100 µL of cell supernatant was collected from each well for cytokine concentration testing, awhich was tested immediately or frozen at -80°C for testing.
The IL-6 concentration in the supernatant of hPBMC cells induced by LPS was determined using a Human IL-6 ELISA kit (D6050, RD).
IL-6 standard solutions of varying concentrations were prepared according to the product instructions, ranging from 0 to 300 pg/mL. 100 µL of Assay Diluent RD1W and 100 µL of standard solution or sample supernatant were added to a pre-coated ELISA plate and incubated at room temperature for 2 hours. After washing the plate four times with 1× wash buffer, then 200 µL of Human IL-6 Conjugate was added and incubated at room temperature for 2 hours. After washing the plate four times with 1× wash buffer, then 200 µL of Substrate Solution was added and incubated at room temperature for 20 minutes. Finally, 50 µL of Stop Solution was added to terminate the reaction. The absorbance at 450 nm and 570 nm were read using a microplate reader (SPARK m1000pro, TECAN). The standard curve was plottd by the signal value of each concentration of IL-6 standard solution, and the IL-6 concentration in each sample was determined according to the corresponding concentration of the signal value of each well on the standard curve. The inhibition rate of the compound on LPS-induced IL-6 in the hPBMC cell supernatant at different drug concentrations was calculated according to the IL-6 concentration. The inhibition rate data were plotted in GraphPad Prism 8.0 software to calculate the IC50 value. Inhibition Rate = [1−(OD(sample)−OD(blank))/(OD(control)−OD(blank))] × 100% [formula] Table 10: Inhibitory effect of Example compounds on LPS-induced IL-6 secretion by hPBMC

TNFα = assay: LPS-induced TNFα secretion by PBMC (HTRF detection); format: cell-based; settings: Homo sapiens, hPBMC, 20 hours compound then LPS 200 ng/mL for 5 hours, read-out: IC50 (inhibition of LPS-induced TNFα)
Experimental: as §1, with “OriBiotech)” for “OriBiotech.)”, “(30-2001,ATCC)” for “(30-2001, ATCC)”, “hours,” for “h,”, “minutes.” for “min.”, “which” for “awhich”
The TNFα concentration in the supernatant of LPS-induced THP-1 cells was determined using the TNF […] detection kit (62[…], PerkinElmer).
TNFα standard solutions of varying concentrations were prepared according to the product instructions, ranging from 0 to 2500 pg/mL. Equal volumes of Eu Cryptate antibody (1×) and d2 antibody (1×) were used to prepare the antibody mixture. 16 µL of standard solution or sample supernatant and 4 µL of the antibody mixture were added to each well of a 384-well white plate. The mixture was centrifuged at 800 rpm for 1 minute and incubated at room temperature for 2 hours. The absorbance at 620 nm and […] was read using a microplate reader (SPARK m1000pro, TECAN). A standard curve was plotted using the signal values of each TNFα standard solution. The TNFα concentration in each sample was determined based on the corresponding concentration of the signal value on the standard curve. The inhibitory rate of the compound on LPS-induced TNFα expression in THP-1 cell supernatants at different drug concentrations was calculated based on the TNFα concentration. The inhibition rate data were plotted in GraphPad Prism 8.0 software, and the IC50 value was calculated. Inhibition Rate = [1−(OD(Sample)−OD(Blank))/(OD(Control)−OD(Blank))] × 100% [formula] Table 9: Degradation effect of example compounds on IRAK4 in PBMC cells

AR protein = target: T1, AR protein (Homo sapiens, UniProt P10275); assay: AR protein degradation in VCaP cells (Western blot); format: cell-based; settings: 8h
T1 construct: AR-positive human prostate cancer cells VCaP (cell source: ATCC); host or cells: VCaP
T1 sequence (P10275 1-920): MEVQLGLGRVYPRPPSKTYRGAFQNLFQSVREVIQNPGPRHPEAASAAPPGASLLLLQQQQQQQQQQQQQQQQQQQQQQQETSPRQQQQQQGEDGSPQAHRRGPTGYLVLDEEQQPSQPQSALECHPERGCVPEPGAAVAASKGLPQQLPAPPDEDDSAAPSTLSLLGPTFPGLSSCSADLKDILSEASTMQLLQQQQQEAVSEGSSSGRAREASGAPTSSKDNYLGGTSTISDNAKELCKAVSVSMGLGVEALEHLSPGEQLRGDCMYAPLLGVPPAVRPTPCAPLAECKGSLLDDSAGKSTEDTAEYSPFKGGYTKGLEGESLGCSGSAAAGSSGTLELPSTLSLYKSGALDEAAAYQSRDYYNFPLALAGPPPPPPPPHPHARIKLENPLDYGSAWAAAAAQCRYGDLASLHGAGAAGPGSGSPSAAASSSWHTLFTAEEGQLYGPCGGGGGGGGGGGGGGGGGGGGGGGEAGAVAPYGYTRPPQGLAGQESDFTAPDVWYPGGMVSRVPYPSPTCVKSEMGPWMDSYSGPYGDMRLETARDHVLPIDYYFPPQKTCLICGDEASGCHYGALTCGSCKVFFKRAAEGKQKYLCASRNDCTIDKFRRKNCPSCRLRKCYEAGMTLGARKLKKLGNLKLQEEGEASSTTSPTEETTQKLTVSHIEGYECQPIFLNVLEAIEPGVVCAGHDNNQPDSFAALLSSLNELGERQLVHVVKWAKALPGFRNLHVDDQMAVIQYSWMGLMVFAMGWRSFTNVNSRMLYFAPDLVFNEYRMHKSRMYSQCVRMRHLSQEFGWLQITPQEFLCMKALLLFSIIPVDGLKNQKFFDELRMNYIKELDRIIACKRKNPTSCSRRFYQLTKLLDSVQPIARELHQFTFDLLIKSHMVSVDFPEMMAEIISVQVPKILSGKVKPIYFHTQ
Experimental: AR-positive human prostate cancer cells VCaP (cell source: ATCC) were cultured in DMEM (GiBco catalog number 11995-065) containing 10% FBS (Hyclone catalog number SH30406.05), and the cells were inoculated in a six-well microplate (Thermo catalog number 140675) at a density of 3 × 10^5 cells/well. After being cultured overnight in a carbon dioxide incubator (ESCO), the prepared compound of the present invention and the positive control sample ARV-766 (energy chemical) solution of different concentrations were added at a volume of 1 µL/well to make the final concentrations of the compound and the positive control sample reach 5nM and 0.5nM, respectively. At the same time, the corresponding solvent control was set and cultured for 8h. After 8h of culture, the culture medium was removed, and the cells were washed with PBS. RIPA lysis buffer containing 1% Protease Inhibitor Cocktail was added. After lysis and centrifugation, a total protein extract was obtained, and the protein concentration in the extract was detected by BCA method. Protein electrophoresis was performed using SDS-PAGE, and then the protein was transferred to a PVDF (Millipore Sigma catalog number PSRP010R5) membrane at a constant voltage of 100V for 60min. The PVDF membrane was placed in a 5% milk powder 1×TBST solution and blocked at room temperature for 1h. The primary antibody solution (Anti-Androgen receptor, Cell Signaling Technology catalog number: 5153S; 1:2000 dilution) was prepared and incubated at 4°C overnight. The primary antibody solution was discarded and the PVDF membrane was washed with 1×TBST for 5 minutes each time, three times. The secondary antibody solution (Thermo catalog number SA5-35571; 1:7500 dilution) was prepared and incubated at room temperature for 1 hour. The secondary antibody solution was discarded and the PVDF membrane was washed with 1×TBST for 5 minutes each time, three times. A dual-color infrared laser imaging system (Licor catalog number Odyssey CLX) was used for Western membrane imaging. The Image Studio software was used to analyze the grayscale of the bands. GAPDH protein bands were also detected for each sample as an internal reference. The AR protein degradation rate of the compound and the positive control sample was calculated based on the grayscale of the protein bands. Among them, "A" means degradation rate ≥ 50%, "B" means 50%> degradation rate ≥ 20%, "C" means 20% degradation rate ≥ 10%, and "D" means degradation rate less than 10%.

E3 ubiquitin ligase CRBN = E3 ubiquitin ligase CRBN (Homo sapiens, UniProt Q96SW2); assay: CRBN competitive binding assay (HTRF, thalidomide-XL665 displacement); settings: competition with XL665-labeled thalidomide for GST-tagged CRBN protein, 3 hours at room temperature; read-out: IC50
Experimental: CRBN binding activity test kit (CEREBLON BINDING KITS (PE, 64BD CRBN PEG)).
The detection is based on homogeneous time-resolved fluorescence (HTRF) technology.
This kit uses a europium-labeled GST antibody (GST Eu Cryptate Antibody) as the donor and XL665-labeled thalidomide (Thalidomide-Red reagent) as the receptor. The donor binds to the GST-tagged CRBN protein.
The donor and acceptor were each diluted 50-fold using the buffer (PROTAC binding buffer 1) in the kit. The CRBN protein was diluted 45-fold. The 8 mM compound solution disclosed in the present invention was diluted 10-fold using the diluent (1 X diluent) in the kit, and then the dilutd solution was subjected to 5-fold gradient dilution of the diluent, diluted 7 times sequentially. […] The mixture was incubated at room temperature for 3 hours. The ratio of the acceptor and donor emission signals for each individual well was calculated.
IC50 value was calculated based on compound concentration, Ratio, and coefficient of variation using GraphPad Prism.

Row | SMILES | inhibition at […] (IL-6) [%] | IC50 (TNFα) [nM] | further results
1 | O=C1CCN(c2ccc3c(c2)CC2(CO3)CN(CC3CCN(C(=O)C4CCC(n5cc(NC(=O)c6cnn7ccc(N8CC9CC8CO9)nc67)c(C(F)F)n5)CC4)CC3)C2)C(=O)N1 (stereo not drawn) [IR-P-6] | 65 | 95.6 | 
2 | C[C@H]1CC2(CCN(c3ccc(C(=O)N4CCC(F)(CN5CCC6(CC5)COc5cc(N7CCC(=O)NC7=O)ccc56)CC4)cc3)CC2)CN1c1ccc(C#N)c(Cl)c1 [A-P-265, (S)-2-chloro-4-(8-(4-(4-((6-(2,4-dioxotetrahydropyrimidin-1(2H)-yl)-2H-spiro[benzofuran-3,4'-piperidine]-1'-yl)methyl)-4-fluoropiperidine-1-carbonyl)phenyl)-3-methyl-2,8-diazaspiro[4.5]dec-2-yl)benzonitrile] |  |  | Degradation rate of AR protein in VCAP cells (AR protein; 0.5 nM): B (50%> degradation rate ≥ 20%); Degradation rate of AR protein in VCAP cells (AR protein; 5 nM): A (degradation rate ≥ 50%)
3 | Cn1c(=O)n(C2CCC(=O)NC2=O)c2cccc(C#CCOC3CCN(C[C@H]4CC[C@H](n5cc(NC(=O)c6cnn7ccc(N8C[C@H]9C[C@@H]8CO9)nc67)c(C(F)F)n5)CC4)CC3)c21 (stereo partly drawn) [KT-474, reference compound] | 85 | 52.3 | inhibition at 0.02 µM (IL-6; 20nM, read-out: Inhibition Rate of IL-6 (20nM)): 63%
4 | O=C1CCN(c2ccc3c(c2)CC2(CCN(CC4CCN(C(=O)C5CCC(n6cc(NC(=O)c7cnn8ccc(N9CC%10CC9CO%10)nc78)c(C(F)F)n6)CC5)CC4)CC2)O3)C(=O)N1 (stereo not drawn) [IR-P-7] | 46 |  | 
5 | O=C1CCN(c2ccc3c(c2)OCC32CCNCC2(F)F)C(=O)N1 (stereo not drawn) [Example A17, 1-(3',3'-difluoro-2H-spiro[benzofuran-3,4'-piperidin]-6-yl)dihydropyrimidine-2,4(1H,3H)-dione] |  |  | IC50 (E3 ubiquitin ligase CRBN): 1730 nM
